In US8394952B2 (Vertex Pharmaceuticals Incorporated, priority 2006, dated 2013):

The compounds below were run against Plk1 (Homo sapiens, UniProt P53350) (assay: biochemical).
Sequence of Plk1 (P53350 20-338): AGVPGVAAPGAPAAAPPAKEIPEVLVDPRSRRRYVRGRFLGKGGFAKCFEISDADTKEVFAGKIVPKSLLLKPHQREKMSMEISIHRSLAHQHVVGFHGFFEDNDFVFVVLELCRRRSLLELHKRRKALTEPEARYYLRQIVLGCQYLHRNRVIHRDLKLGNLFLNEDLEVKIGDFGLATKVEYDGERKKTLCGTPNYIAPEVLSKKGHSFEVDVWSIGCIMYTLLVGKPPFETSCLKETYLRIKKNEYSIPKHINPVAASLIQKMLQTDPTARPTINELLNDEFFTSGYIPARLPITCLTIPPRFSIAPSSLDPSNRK

| Compound | Ki |
| --- | --- |
| CNC(=O)c1ccc(Nc2ncc3c(n2)N(C2CCOCC2)CC(C)(C)C(=O)N3C)c(OC)c1 [Compound I-56, 4-(6,7,8,9-tetrahydro-9-(tetrahydro-2H-pyran-4-yl)-5,7,7-trimethyl-6-oxo-5H-pyrimido[4,5-b][1,4]diazepin-2-ylamino)-3-methoxy-N-methylbenzamide] | 10 to 100 nM |
| CNC(=O)c1ccc(Nc2ncc3c(n2)N([C@@H]2CCN(C)C2)CC(C)(C)C(=O)N3C)c(OC)c1 [Compound I-20, 4-(6,7,8,9-tetrahydro-5,7,7-trimethyl-9-((R)-1-methylpyrrolidin-3-yl)-6-oxo-5H-pyrimido[4,5-b][1,4]diazepin-2-ylamino)-3-methoxy-N-methylbenzamide] | 10 to 100 nM |
| COc1cc(C(=O)NCCC(C)O)ccc1Nc1ncc2c(n1)N(C1CCCC1)CC(C)(C)C(=O)N2C (stereo not drawn) [Compound I-243, 4-(9-cyclopentyl-5,7,7-trimethyl-6-oxo-6,7,8,9-tetrahydro-5H-pyrimido[4,5-b][1,4]diazepin-2-ylamino)-N-(3-hydroxybutyl)-3-methoxybenzamide] | < 10 nM |
| CNC(=O)c1ccc(Nc2ncc3c(n2)N(C2CCCC2)CC2(CC2)C(=O)N3C)c(OC)c1 [Compound I-62, 4-(9′-cyclopentyl-5′-methyl-6′-oxo-5′,6′,8′,9′-tetrahydrospiro[cyclopropane-1,7′-pyrimido[4,5-b][1,4]diazepine]-2′-ylamino)-3-methoxy-N-methylbenzamide] | < 10 nM |
| COc1cc(C(=O)NC2CN(CC3CC3)C2)ccc1Nc1ncc2c(n1)N(C1CCCC1)CC(C)(C)C(=O)N2C [Compound I-53, 4-(9-cyclopentyl-6,7,8,9-tetrahydro-5,7,7-trimethyl-6-oxo-5H-pyrimido[4,5-b][1,4]diazepin-2-ylamino)-N-(1-(cyclopropylmethyl)azetidin-3-yl)-3-methoxybenzamide] | < 10 nM |
| COc1cc(C(=O)NC2CN(C)C2)ccc1Nc1ncc2c(n1)N(C1CCCC1)CC(C)(C)C(=O)N2C [Compound I-25, 4-(9-cyclopentyl-6,7,8,9-tetrahydro-5,7,7-trimethyl-6-oxo-5H-pyrimido[4,5-b][1,4]diazepin-2-ylamino)-3-methoxy-N-(1-methylazetidin-3-yl)benzamide] | < 10 nM |
| COc1cc(C(=O)N[C@@H]2CCC[C@H]2O)ccc1Nc1ncc2c(n1)N(C1CCCC1)CC(C)(C)C(=O)N2C [Compound I-244, 4-(9-cyclopentyl-5,7,7-trimethyl-6-oxo-6,7,8,9-tetrahydro-5H-pyrimido[4,5-b][1,4]diazepin-2-ylamino)-N-((1R,2R)-2-hydroxycyclopentyl)-3-methoxybenzamide] | < 10 nM |
| CN1C(=O)C(C)(C)CN(C2CCCC2)c2nc(Nc3ccc4c(c3)CCN4S(C)(=O)=O)ncc21 [Compound I-138, 9-Cyclopentyl-2-(1-methanesulfonyl-2,3-dihydro-1H-indol-5-ylamino)-5,7,7-trimethyl-5,7,8,9-tetrahydro-pyrimido[4,5-b][1,4]diazepin-6-one] | 10 to 100 nM |
| COc1ccc(NC(=O)c2ccc(Nc3ncc4c(n3)N(C3CCCC3)CC(C)(C)C(=O)N4C)c(OC)c2)cc1 [Compound I-261, 4-(9-cyclopentyl-5,7,7-trimethyl-6-oxo-6,7,8,9-tetrahydro-5H-pyrimido[4,5-b][1,4]diazepin-2-ylamino)-3-methoxy-N-(4-methoxyphenyl)benzamide] | < 10 nM |

Continued, values first:

| Ki | Compound |
| --- | --- |
| < 10 nM | COCCNC(=O)c1ccc(Nc2ncc3c(n2)N(C2CCCC2)CCC(=O)N3C)c(OC)c1 [Compound I-11, 4-(9-cyclopentyl-6,7,8,9-tetrahydro-5-methyl-6-oxo-5H-pyrimido[4,5-b][1,4]diazepin-2-ylamino)-3-methoxy-N-(2-methoxyethyl)benzamide] |
| < 10 nM | COc1cc(C(=O)NC2CC2)ccc1Nc1ncc2c(n1)N(C1CCCC1)CC1(CC1)C(=O)N2C [Compound I-178, 4-(9′-cyclopentyl-5′-methyl-6′-oxo-5′,6′,8′,9′-tetrahydrospiro[cyclopropane-1,7′-pyrimido[4,5-b][1,4]diazepine]-2′-ylamino)-N-cyclopropyl-3-methoxybenzamide] |
| < 10 nM | CNC(=O)c1ccc(Nc2ncc3c(n2)N([C@@H]2CCOC2)CC(C)(C)C(=O)N3C)c(OC)c1 [Compound I-181, 4-(6,7,8,9-tetrahydro-9-((R)-tetrahydrofuran-3-yl)-5,7,7-trimethyl-6-oxo-5H-pyrimido[4,5-b][1,4]diazepin-2-ylamino)-3-methoxy-N-methylbenzamide] |
| < 10 nM | COc1cc(C(=O)NC2CCN(C)CC2)ccc1Nc1ncc2c(n1)N(C1CCCC1)CC1(CC1)C(=O)N2C [Compound I-76, 4-(9′-cyclopentyl-5′-methyl-6′-oxo-5′,6′,8′,9′-tetrahydrospiro[cyclopropane-1,7′-pyrimido[4,5-b][1,4]diazepine]-2′-ylamino)-3-methoxy-N-(1-methylpiperidin-4-yl)benzamide] |
| < 10 nM | CNC(=O)c1ccc(Nc2ncc3c(n2)N(C2CC4CCC2C4)CC(C)(C)C(=O)N3C)c(OC)c1 (stereo not drawn) [Compound I-191, 4-(9-(bicyclo[2.2.1]heptan-2-yl)-5,7,7-trimethyl-6-oxo-6,7,8,9-tetrahydro-5H-pyrimido[4,5-b][1,4]diazepin-2-ylamino)-3-methoxy-N-methylbenzamide] |
| < 10 nM | COc1cc(C(=O)N[C@@H]2CCCC[C@H]2O)ccc1Nc1ncc2c(n1)N(C1CCCC1)CC(C)(C)C(=O)N2C [Compound I-268, 4-(9-cyclopentyl-5,7,7-trimethyl-6-oxo-6,7,8,9-tetrahydro-5H-pyrimido[4,5-b][1,4]diazepin-2-ylamino)-N-((1R,2R)-2-hydroxycyclohexyl)-3-methoxybenzamide] |
| < 10 nM | COc1cc(C(=O)NC2CCCCC2)ccc1Nc1ncc2c(n1)N(C1CCCC1)CC(C)(C)C(=O)N2C [Compound I-133, 4-(9-cyclopentyl-6,7,8,9-tetrahydro-5,7,7-trimethyl-6-oxo-5H-pyrimido[4,5-b][1,4]diazepin-2-ylamino)-N-cyclohexyl-3-methoxybenzamide] |
| < 10 nM | COc1cc(C(=O)NCCc2cn(C)cn2)ccc1Nc1ncc2c(n1)N(C1CCCC1)CC(C)(C)C(=O)N2C [Compound I-31, 4-(9-cyclopentyl-6,7,8,9-tetrahydro-5,7,7-trimethyl-6-oxo-5H-pyrimido[4,5-b][1,4]diazepin-2-ylamino)-3-methoxy-N-(2-(1-methyl-1H-imidazo-4-yl)ethyl)benzamide] |
| < 10 nM | CN1C(=O)C(C)(C)CN(C2CCCC2)c2nc(Nc3ccc(-n4ccnc4)cc3)ncc21 [Compound I-48, 2-(4-(1H-imidazol-1-yl)phenylamino)-9-cyclopentyl-8,9-dihydro-5,7,7-trimethyl-5H-pyrimido[4,5-b][1,4]diazepin-6(7H)-one] |
| < 10 nM | COc1cc(C(=O)NC2CCN(CC(C)C)CC2)ccc1Nc1ncc2c(n1)N(C1CCCC1)CC(C)(C)C(=O)N2C [Compound I-70] |
| < 10 nM | COc1cc(C(=O)NC2CCN(C(C)C)CC2)ccc1Nc1ncc2c(n1)N(C1CCCC1)CC(C)(C)C(=O)N2C [Compound I-67] |
| < 10 nM | CN1C(=O)C(C)(C)CN(C2CCCC2)c2nc(Nc3ccc(C(=O)NCCO)cc3)ncc21 [Compound I-87, 4-(9-cyclopentyl-6,7,8,9-tetrahydro-5,7,7-trimethyl-6-oxo-5H-pyrimido[4,5-b][1,4]diazepin-2-ylamino)-N-(2-hydroxyethyl)benzamide] |
